Laboratory results from patent publication US20160082109A1, “COPOLYMER AND NANOPARTICLES OBTAINED THEREFROM FOR DRUG DELIVERY” (FONDAZIONE ISTITUTO ITALIANO DI TECNOLOGIA, priority 2013, published 2016).

Columns and labels:
bEND.3 cells = test: Confocal microscopy of nanoparticle internalization and RhB delivery; format: cell-based, mice; conditions: 6 h; nanoparticles 10 μg/ml, free RhB 113 ng/ml
Description: Immortalized endothelial cells of mice, bEND.3 (American Type Culture Collection, Manassas, Va., USA) were cultivated in a DMEM medium with high levels of glucose in the presence of 10% of FBS, L-glutamine 2 mM, 1000 U/ml penicillin and 1 mg/ml of streptomycin. The cells split from 2 to 20 times were kept in a humidified incubator for cell cultures at 37° C. and 5%, CO2. This cell line was chosen because it is a suitable model for providing an endothelial barrier. […] The free rhodamine (113 ng/ml, the same quantity of rhodamine administered with the nanoparticles), was used as negative control for the absorption test for nanoparticles loaded with rhodamine B. […] Lysotracker-red-[…] 50 nM was added to mark the lysosomes and verify the intracellular localization of the nanoparticles. To understand the release potential by the nanoparticles, the internalization of nanoparticles loaded with RhB by bEND.3 cells was compared with the detection of fluorescent RhB not loaded on nanoparticles (FIGS. 15a and 15b respectively).

[1] = format: physicochemical
Description: The tests were conducted on 2±0.3 mg of polymer, placed in polypropyplene vials filled with 1 ml of deionized H2O and kept in a thermostatic bath at 37° C. for 33 days. At regular intervals the samples were withdrawn, the degradation medium was separated for evaluation of the pH while the degraded polymers were dried in a ventilated stove at 50° C. for 3 h and then analysed by gel permeation chromatography (GPC).
The pH measurements were conducted on the degradation means (deionized H2O) after pre-set times. In particular, the degradation means were withdrawn from the vials containing the polymer, prepared as reported in example 1, during the degradation tests in the previous example and the measurement was performed using a pH-meter on the samples just taken at a temperature of 37° C.

Molecule	RhB internalization in cells (bEND.3 cells)	pH of the degradation means (lower values / end of the test) [1]
CCN(CC)c1ccc2c(-c3ccccc3C(=O)O)c3ccc(=[N+](CC)CC)cc-3oc2c1.[Cl-] [Free RhB, rhodamine B]	not observed	
polycaprolactone [PCL]		comparable
